Data: patent US8575309B2, “Delta-opioid receptor selective analgesics” (Biousian Biosystems, Inc., priority 2008, dated 2013)
Read-outs that look alike come from different tables or passages of the source. Non-standard residues stand in square brackets, D forms with d. Residues, ends and D or L forms follow the SMILES beside them. *: point of attachment. βGlc = OC[C@H]1O[C@@H](*)[C@H](O)[C@@H](O)[C@@H]1O; Nle = CCCC[C@H](N)C(=O)O; Nva = CCC[C@H](N)C(=O)O

Key:
[1] = molecular target: T1, human kappa opioid receptor (hKOR) (Homo sapiens, UniProt P41145); assay: Radioligand binding, [3H]U69,593, hKOR CHO cell membranes; conditions: peptide at 10 uM, read-out: Max Inhib at 10 uM (%) Kappa [3H]U69,593 Mean
T1 construct: expressed in transfected cells; membranes
T1 sequence (P41145 whole entry): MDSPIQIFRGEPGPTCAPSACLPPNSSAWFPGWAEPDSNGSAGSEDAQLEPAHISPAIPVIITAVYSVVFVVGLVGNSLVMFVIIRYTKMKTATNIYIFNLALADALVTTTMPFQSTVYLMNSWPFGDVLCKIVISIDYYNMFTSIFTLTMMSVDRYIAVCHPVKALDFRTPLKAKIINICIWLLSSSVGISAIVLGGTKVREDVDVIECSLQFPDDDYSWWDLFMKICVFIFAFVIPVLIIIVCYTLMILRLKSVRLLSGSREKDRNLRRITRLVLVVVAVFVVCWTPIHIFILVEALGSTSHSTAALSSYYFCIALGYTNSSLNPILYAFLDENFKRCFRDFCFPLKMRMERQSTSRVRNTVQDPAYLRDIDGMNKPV

[2] = molecular target: T2, human delta opioid receptor (hDOR) (Homo sapiens, UniProt P41143); assay: Radioligand competition binding, [3H]naltrindole, hDOR CHO cell membranes; conditions: for rank order of affinity for the delta receptor: peptides at 100 nM and 1 nM vs. 0.2 nM [3H]Naltrindole, 20 ug hDOR CHO cell membranes (FIGS. 1 and 2)
T2 construct: expressed in transfected cells; membranes
T2 sequence (P41143 whole entry): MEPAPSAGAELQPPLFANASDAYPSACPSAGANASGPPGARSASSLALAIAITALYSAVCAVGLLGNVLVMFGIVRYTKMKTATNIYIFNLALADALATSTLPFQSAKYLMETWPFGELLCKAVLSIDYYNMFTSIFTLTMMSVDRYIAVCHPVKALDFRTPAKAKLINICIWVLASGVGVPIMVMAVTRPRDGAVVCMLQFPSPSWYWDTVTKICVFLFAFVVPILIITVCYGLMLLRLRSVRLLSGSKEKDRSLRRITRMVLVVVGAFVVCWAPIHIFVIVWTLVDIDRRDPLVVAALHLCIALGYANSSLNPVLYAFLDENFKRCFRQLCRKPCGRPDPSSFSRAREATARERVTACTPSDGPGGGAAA

[3] = molecular target: T3, human mu opioid receptor (hMOR) (Homo sapiens, UniProt P35372); assay: Radioligand competition binding, [3H]DAMGO, hMOR CHO cell membranes
T3 construct: expressed in transfected cells; membranes
T3 sequence (P35372 whole entry): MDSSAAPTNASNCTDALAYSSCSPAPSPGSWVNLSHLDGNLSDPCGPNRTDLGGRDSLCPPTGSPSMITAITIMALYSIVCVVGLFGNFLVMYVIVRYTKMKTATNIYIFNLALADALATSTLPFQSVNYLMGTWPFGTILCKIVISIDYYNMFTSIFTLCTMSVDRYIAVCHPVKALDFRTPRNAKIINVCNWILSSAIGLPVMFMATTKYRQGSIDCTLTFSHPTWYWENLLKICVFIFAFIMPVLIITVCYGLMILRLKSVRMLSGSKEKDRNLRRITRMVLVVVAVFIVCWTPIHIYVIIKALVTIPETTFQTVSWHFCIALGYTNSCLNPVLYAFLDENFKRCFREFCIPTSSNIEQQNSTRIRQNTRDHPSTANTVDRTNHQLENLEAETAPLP

[4] = molecular target: T4, hDOR (Homo sapiens, UniProt P41143); assay: [35S]GTPγS binding assay, hDOR CHO cell membranes; assay type: biochemical; conditions: for Antagonist Properties Imax (%) Delta Mean: cell wraps over r13-r15: No Inhibition; for Description: Delta: functional classification; for Emax: read-out: Agonist Properties EMax (%) Delta Mean
T4 construct: expressed in transfected cells; membranes
T4 sequence (P41143 whole entry): as the sequence (P41143 whole entry) above
Method: (§1) GTPγS binding assay to determine if the peptide is an agonist, antagonist, or partial agonist at the DOR. Membranes from the CHO cell lines, expressing either the MOR, DOR or KOR, will be incubated with 12 concentrations of each peptide for 60 min at 30° C. in a final volume of 0.5 mL of assay buffer (50 mM Tris-HCl, 3 mM MgCl2, 0.2 mM EGTA, 100 mM NaCl, pH 7.5) containing 3 μM GDP and 0.08 nM [^35S] GTPγS. Basal binding is determined in the presence of GDP and the absence of opioids, and nonspecific binding is determined by including 10 μM unlabeled […] GTPγS. The incubation is terminated by filtration under vacuum through glass fiber filters, followed by three washes with 3-ml ice-cold 50 mM Tris-HCl, pH 7.5. Samples are allowed to equilibrate overnight and are counted in 2 ml of Ecoscint A scintillation fluid for 2 min in a liquid scintillation counter.
(§2) GTPγS binding assay described in Example 3.

[5] = molecular target: T5, hMOR (Homo sapiens, UniProt P35372); assay: [35S]GTPγS binding assay, hMOR CHO cell membranes; assay type: biochemical; conditions: for Antagonist Properties Imax (%) Mu Mean: cell wraps over r13-r15: No Inhibition; for Description: Mu: functional classification; for Emax: hMOR CHO cell membranes, @ 10 um, read-out: Agonist Properties EMax (%) Mu Mean
T5 construct: expressed in transfected cells; membranes
T5 sequence (P35372 whole entry): as the sequence (P35372 whole entry) above
Method: as §1, §2

[6] = test system: mouse tail flick; assay: Mouse tail flick assay, oral availability of formulations; assay type: in vivo; conditions: for antinociceptive activity: 32 mg/kg

## CCC[C@H](NC(=O)[C@H](CCC)NC(=O)[C@H](CCC(=O)O)NC(=O)[C@H](Cc1ccccc1)NC(=O)[C@@H](C)NC(=O)[C@@H](N)Cc1ccc(O)cc1)C(=O)N[C@@H](CO[C@@H]1O[C@H](CO)[C@@H](O)[C@H](O)[C@H]1O)C(N)=O [Peptide 11005, H2N-YaFE-Nva-Nva-S(beta-D-Glc)-amide] (H-Y[dA]FE[Nva][Nva]S(βGlc)-NH2)
[1]
  inhibition at 10 µM: 5.3%
[2]
  IC50: 0.061 µM
  Ki: 0.02 µM
  rank order of affinity for the delta receptor: [11001≈111003≈11008≈DPDDE]>[11005≈11006≈11007]>[11002≈11004]>Lsz27
[3]
  Ki: 0.71 µM

## CCCC[C@H](NC(=O)[C@H](CCC(=O)O)NC(=O)[C@H](Cc1ccccc1)NC(=O)[C@@H](C)NC(=O)[C@@H](N)Cc1ccc(O)cc1)C(=O)N[C@@H](CCCC)C(=O)N[C@H](C(N)=O)[C@@H](C)O[C@@H]1O[C@H](CO)[C@@H](O)[C@H](O)[C@H]1O [Peptide 11008, H2N-YaFE-Nle-Nle-T(beta-D-Glc)-amide] (H-Y[dA]FE[Nle][Nle]T(βGlc)-NH2)
[1]
  inhibition at 10 µM: 2.9%
[4]
  EC50: 12 nM
  Antagonist Properties Imax (%) Delta Mean: No
  Description: Delta: Agonist
[4]; hDOR CHO cell membranes
  Emax: 75%
[5]
  Antagonist Properties Imax (%) Mu Mean: No
  Description: Mu: Very weak agonist
  Emax: 27%
[6]; oral formulation, 3.2 mg/kg
  efficacy of oral formulation versus unformulated glycopeptide: just slightly lower efficacy than that produced by 32 mg/kg of unformulated glycopeptide 11008
[6]; oral formulation
  antinociceptive activity: 75%
[6]; saline formulation (unformulated)
  antinociceptive activity: 30%
[2]
  IC50: 0.042 µM
  Ki: 0.014 µM
  rank order of affinity for the delta receptor: [11001≈111003≈11008≈DPDDE]>[11005≈11006≈11007]>[11002≈11004]>Lsz27
[2]; relative to DPDPE
  lower affinity for delta than DPDPE: ~3 fold
[3]
  Ki: 1.1 µM

## CCCC[C@H](NC(=O)[C@H](CCC(=O)O)NC(=O)[C@H](Cc1ccccc1)NC(=O)[C@@H](C)NC(=O)[C@@H](N)Cc1ccc(O)cc1)C(=O)N[C@@H](CCCC)C(=O)N[C@H](C(N)=O)[C@@H](C)O [Peptide 11009, H2N-YaFE-Nle-Nle-T-amide] (H-Y[dA]FE[Nle][Nle]T-NH2)
[4]
  Antagonist Properties Imax (%) Delta Mean: No
  Description: Delta: Agonist
[4]; hDOR CHO cell membranes, read-out: Agonist Properties EC50 (nM) Delta Mean
  EC50: 12 nM
[4]; hDOR CHO cell membranes
  Emax: 67%
[5]
  Antagonist Properties Imax (%) Mu Mean: No
  Description: Mu: Very weak agonist
  Emax: 42%

## H2N-YaFE-Nle-Nle-S(beta-D-Glc)-amide (H-Y[dA]FE[Nle][Nle]S(βGlc)-NH2; SMILES CCCC[C@H](NC(=O)[C@H](CCCC)NC(=O)[C@H](CCC(=O)O)NC(=O)[C@H](Cc1ccccc1)NC(=O)[C@@H](C)NC(=O)[C@@H](N)Cc1ccc(O)cc1)C(=O)N[C@@H](CO[C@@H]1O[C@H](CO)[C@@H](O)[C@H](O)[C@H]1O)C(N)=O) [Peptide 11006]
[2]
  rank order of affinity for the delta receptor: [11001≈111003≈11008≈DPDDE]>[11005≈11006≈11007]>[11002≈11004]>Lsz27

## H2N-YaFE-Nva-Nva-T(beta-D-Glc)-amide (H-Y[dA]FE[Nva][Nva]T(βGlc)-NH2; SMILES CCC[C@H](NC(=O)[C@H](CCC(=O)O)NC(=O)[C@H](Cc1ccccc1)NC(=O)[C@@H](C)NC(=O)[C@@H](N)Cc1ccc(O)cc1)C(=O)N[C@@H](CCC)C(=O)N[C@H](C(N)=O)[C@@H](C)O[C@@H]1O[C@H](CO)[C@@H](O)[C@H](O)[C@H]1O) [Peptide 11007]
[2]
  rank order of affinity for the delta receptor: [11001≈111003≈11008≈DPDDE]>[11005≈11006≈11007]>[11002≈11004]>Lsz27

## H2N-YaFHLAS(beta-D-Glc)-amide (H-Y[dA]FHLAS(βGlc)-NH2; SMILES CC(C)C[C@H](NC(=O)[C@H](Cc1c[nH]cn1)NC(=O)[C@H](Cc1ccccc1)NC(=O)[C@@H](C)NC(=O)[C@@H](N)Cc1ccc(O)cc1)C(=O)N[C@@H](C)C(=O)N[C@@H](CO[C@@H]1O[C@H](CO)[C@@H](O)[C@H](O)[C@H]1O)C(N)=O) [Peptide 11002]
[2]
  rank order of affinity for the delta receptor: [11001≈111003≈11008≈DPDDE]>[11005≈11006≈11007]>[11002≈11004]>Lsz27

## H2N-YaFHLAT(beta-D-Glc)-amide (H-Y[dA]FHLAT(βGlc)-NH2; SMILES CC(C)C[C@H](NC(=O)[C@H](Cc1c[nH]cn1)NC(=O)[C@H](Cc1ccccc1)NC(=O)[C@@H](C)NC(=O)[C@@H](N)Cc1ccc(O)cc1)C(=O)N[C@@H](C)C(=O)N[C@H](C(N)=O)[C@@H](C)O[C@@H]1O[C@H](CO)[C@@H](O)[C@H](O)[C@H]1O) [Peptide 11004]
[2]
  rank order of affinity for the delta receptor: [11001≈111003≈11008≈DPDDE]>[11005≈11006≈11007]>[11002≈11004]>Lsz27

## H2N-YmFHLMS(beta-D-Glc)-amide (H-Y[dM]FHLMS(βGlc)-NH2; SMILES CSCC[C@H](NC(=O)[C@H](CC(C)C)NC(=O)[C@H](Cc1c[nH]cn1)NC(=O)[C@H](Cc1ccccc1)NC(=O)[C@@H](CCSC)NC(=O)[C@@H](N)Cc1ccc(O)cc1)C(=O)N[C@@H](CO[C@@H]1O[C@H](CO)[C@@H](O)[C@H](O)[C@H]1O)C(N)=O) [Peptide 11001]
[2]
  rank order of affinity for the delta receptor: [11001≈111003≈11008≈DPDDE]>[11005≈11006≈11007]>[11002≈11004]>Lsz27

## H2N-YmFHLMT(beta-D-Glc)-amide (H-Y[dM]FHLMT(βGlc)-NH2; SMILES CSCC[C@H](NC(=O)[C@H](CC(C)C)NC(=O)[C@H](Cc1c[nH]cn1)NC(=O)[C@H](Cc1ccccc1)NC(=O)[C@@H](CCSC)NC(=O)[C@@H](N)Cc1ccc(O)cc1)C(=O)N[C@H](C(N)=O)[C@@H](C)O[C@@H]1O[C@H](CO)[C@@H](O)[C@H](O)[C@H]1O) [Peptide 11003]
[2]
  rank order of affinity for the delta receptor: [11001≈111003≈11008≈DPDDE]>[11005≈11006≈11007]>[11002≈11004]>Lsz27
